In patent publication US4347319A, “Microbiological epoxidation process” (priority 1980, dated 1982):

What was measured:
Assay type in all cases: biochemical
[1] = tested on: P(40) particulate fraction of Methylosinus sp. (CRL-15, NRRL B-11,202); test: Substrate competition: effect of methane on propylene epoxidation; conditions: 30° C.
Protocol: The oxidation of methane and propylene by particulate [(P)40 and (P)80] fractions and soluble [S(80)] fraction was measured at 30° C. by estimating the production of methanol and propylene oxide, respectively. The reaction mixtures contained in […]: 150 mM potassium phosphate buffer, pH 7.0 containing 5 mM MgCl2 b, 0.6 ml; 10μ moles NADH, and cellular fraction.
Reaction mixtures were contained in 10 ml vials at 4° C. Vials were sealed with rubber caps. The gaseous phase in the vials was removed using vacuum and then was replaced with a gas mixture of methane or propylene and oxygen at a 1:1, v/v ratio. Oxidation of other gaseous n-alkanes and n-alkanes was examined as described above. For liquid substrates, 10 μl of substrate was used directly.
The hydroxylation of methane and the epoxidation of propylene by particulate fractions of methane-utilizing bacteria required oxygen and NADH. The question of whether the same or a similar enzyme was involved in the oxidation of both substrates was examined by substrate competition experiments. The experiment consisted of determining the effect of methane on the oxidation of propylene to propylene oxide by the P(40) particulate fraction of Methylosinus sp. (CRL-15, NRRL B-11,202).

[2] = target: T1, cell-free fractions of Methylococcus capsulatus (CRL M1, NRRL B-11,219) (Methylococcus capsulatus, UniProt G1UBD1+Q603F1+Q607G3); test: Epoxidation and hydroxylation activities in cell-free fractions
T1 sequence (G1UBD1 33-414): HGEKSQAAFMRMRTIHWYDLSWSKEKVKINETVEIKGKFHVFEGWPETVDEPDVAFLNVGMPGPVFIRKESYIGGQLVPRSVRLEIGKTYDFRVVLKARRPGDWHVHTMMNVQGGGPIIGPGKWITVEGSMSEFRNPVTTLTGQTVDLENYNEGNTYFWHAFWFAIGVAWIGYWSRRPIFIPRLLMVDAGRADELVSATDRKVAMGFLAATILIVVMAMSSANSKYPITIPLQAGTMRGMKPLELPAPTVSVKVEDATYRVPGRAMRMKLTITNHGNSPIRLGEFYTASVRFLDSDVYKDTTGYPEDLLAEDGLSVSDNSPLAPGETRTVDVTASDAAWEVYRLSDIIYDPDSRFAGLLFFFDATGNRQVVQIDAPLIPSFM
T1 sequence (Q607G3 1-247): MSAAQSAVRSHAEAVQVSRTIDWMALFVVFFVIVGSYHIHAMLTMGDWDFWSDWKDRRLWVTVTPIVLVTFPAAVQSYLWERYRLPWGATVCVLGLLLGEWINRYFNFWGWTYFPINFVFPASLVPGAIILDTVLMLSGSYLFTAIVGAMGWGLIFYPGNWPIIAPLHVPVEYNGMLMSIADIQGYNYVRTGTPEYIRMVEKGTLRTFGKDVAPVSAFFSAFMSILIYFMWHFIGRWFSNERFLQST
T1 sequence (Q603F1 1-260): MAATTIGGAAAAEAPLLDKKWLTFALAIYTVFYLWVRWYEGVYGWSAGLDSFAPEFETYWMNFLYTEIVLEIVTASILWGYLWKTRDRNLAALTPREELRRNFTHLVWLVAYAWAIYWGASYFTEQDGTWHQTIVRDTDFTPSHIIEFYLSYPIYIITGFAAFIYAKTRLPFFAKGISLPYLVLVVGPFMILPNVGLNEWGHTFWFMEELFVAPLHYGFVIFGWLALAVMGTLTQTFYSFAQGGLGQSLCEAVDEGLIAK
Protocol: Cells of methane-grown Methylococcus capsulatus (CRL M1, NRRL B-11,219) were obtained by the method of Example 1. […] However, when the cells were disrupted by passing twice through a French pressure cell (1000 Kg. pressure), both activities were found in the crude extract after 10,000×g. centrifugation. All of the activity in the crude extract was collected as a particulate fraction by further centrifugation of the crude extract at 40,000×g. for 90 min. at 4° C.
^a The cells were disrupted by French Press as described above. NADH
[…] was added into the reaction mixture where indicated.
The amount of protein in the particulate fraction and the 40,000 ×
g. supernatant fraction used was 1 mg. and 2.5 mg., respectively. Each
assay contained 0.5 ml. reaction mixture.

[3] = tested on: cell fractions of Methylomonas sp. (CRL-17, NRRL B-11,208); test: Oxidation by cell fractions P(40), P(80), S(80); conditions: propylene to propylene oxide, methane to methanol, 30° C.
Summary of the method: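 Cells washed and French-press disrupted in 25 mM K phosphate pH 7.0 with 5 mM MgCl2; particulate P(40), P(80) and soluble S(80) fractions from 40,000×g and 80,000×g spins. Methane or propylene (1:1 with O2) oxidised at 30° C with NADH; methanol/propylene oxide by GC; activity as μmoles product/h/mg protein.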

[4] = particulate fraction (10,000 × g.-40,000 × g.), 1 mg. protein
[5] = supernatant fraction of 40,000 × g., 2.5 mg. protein

Row | Compound | Propylene Oxide Produced [1] [μmoles/hr./mg. protein] | Oxidation Rate [2, 4] [nmoles/30 min/assay] | Oxidation Rate ([2]; particulate fraction + NADH) [nmoles/30 min/assay] | Oxidation Rate ([2]; supernatant fraction + NADH) [nmoles/30 min/assay] | Oxidation Rate [2, 5] [nmoles/30 min/assay] | Oxidizing Activity (rate of oxidation) in cell fraction ([3]; P(40)) | Oxidizing Activity (rate of oxidation) in cell fraction ([3]; P(80)) | Oxidizing Activity (rate of oxidation) in cell fraction ([3]; S(80))
1 | C=CC [Propylene] | 4.3 | 750 | 900 | 0 | 0 | 2.2 μ moles of products formed per | 2.0 μ moles of products formed per | 0 μ moles of products formed per
2 | C [Methane] | 0 | 500 | 650 | 0 | 0 | 2.9 μ moles of products formed per | 2.7 μ moles of products formed per | 0 μ moles of products formed per
